In PubChem BioAssay (NCI) one finds TGI data, which are given here for twelve compounds.

Broadly, the TGI is the concentration at which net growth stops. Low values mean greater sensitivity of the cells, high ones lower sensitivity of the cells.

Test systems include ACHN renal; SNB-19 CNS; RPMI-8226 leukemia; HCT-15 colon; HCT-116 colon; M14 melanoma; NCI-H23 lung; HOP-92 NSCLC; UACC-62 melanoma; NCI-H460 lung; KM12 colon.
What all share (assay): DTP human tumour cell line panel, 48 h

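Values below derive from 48-hour exposures of cells grown in 96-well plates, with endpoints linearly interpolated between the two concentrations bracketing the appropriate inhibition level. TGI is the concentration that stops growth completely.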 Where a SMILES comes first, the peptide text is derived from it. The star is where a group is joined. Boc = CC(C)(C)OC(=O)*; OBn = c1ccc(CO*)cc1; Bn = c1ccc(C*)cc1

`NCCCCN(CCCN)C(=O)OCc1ccccc1`: the TGI in the assay on ACHN renal, in the assay on SNB-19 CNS, in the assay with RPMI-8226 leukemia, in the assay with HCT-15 colon, in the assay on HCT-116 colon and with M14 melanoma was greater than 100 µM throughout. The TGI in the assay on NCI-H23 lung, in the assay with HOP-92 NSCLC, in the assay with UACC-62 melanoma, in the assay on NCI-H460 lung and in the assay on KM12 colon was greater than 100 µM throughout.
For the compound `Cc1ccc(N=c2oc3c(ccc4ccccc43)nc2Nc2ccc(C)cc2)cc1`, the TGI with ACHN renal, in the assay with SNB-19 CNS, with RPMI-8226 leukemia, in the assay on HCT-15 colon, in the assay on HCT-116 colon and in the assay on NCI-H23 lung was greater than 100 µM throughout. Further, the TGI in the assay with HOP-92 NSCLC, in the assay with UACC-62 melanoma, with NCI-H460 lung and in the assay with KM12 colon was greater than 100 µM each time.
Regarding `Nc1c2c(nc3ccccc13)-c1ccccc1CCC2`, the TGI is 26.5 µM with ACHN renal; 55.4 µM in the assay on SNB-19 CNS; 33.5 µM in the assay with RPMI-8226 leukemia; 27.3 µM in the assay with HCT-15 colon; 20.2 µM in the assay on HCT-116 colon; 25.8 µM in the assay with M14 melanoma. The TGI was 37.8 µM with NCI-H23 lung; 25.9 µM with HOP-92 NSCLC; 22.7 µM in the assay on UACC-62 melanoma; 18 µM with NCI-H460 lung; 33.4 µM in the assay on KM12 colon.
Consider `CCCCOP(=O)(OCCCC)C(NS(=O)(=O)c1ccccc1)(C(=O)OCC)C(F)(F)F` (centres undefined), for which the TGI in the assay on ACHN renal was 85.1 µM; in the assay on SNB-19 CNS it was greater than 100 µM; with RPMI-8226 leukemia, 66.1 µM; with HCT-15 colon it was greater than 100 µM; in the assay with HCT-116 colon it was 66.9 µM; with M14 melanoma, 68 µM. Moreover, the TGI with NCI-H23 lung was greater than 100 µM; in the assay on HOP-92 NSCLC, 71.8 µM; with UACC-62 melanoma, greater than 100 µM; in the assay with NCI-H460 lung, greater than 100 µM; in the assay with KM12 colon, 93.2 µM.
Regarding `COC(CO[Si](C)(C)N[Si](C)(C)OCC(OC)c1ccccc1)c1ccccc1` (centres undefined), the total growth inhibition concentration (TGI) with ACHN renal, with SNB-19 CNS, in the assay with RPMI-8226 leukemia, with HCT-15 colon, with HCT-116 colon and in the assay on M14 melanoma was greater than 100 µM each time. The TGI in the assay with NCI-H23 lung, in the assay on HOP-92 NSCLC, in the assay with UACC-62 melanoma, with NCI-H460 lung and with KM12 colon was greater than 100 µM throughout.
Turning to `CO/C=C(/C(=O)OC)c1ccccc1[C@H]1C[C@@H]1c1ccc(OC)cc1`, the TGI in the assay on ACHN renal is 74.2 µM; in the assay on SNB-19 CNS, greater than 100 µM; in the assay on RPMI-8226 leukemia, 58.5 µM; in the assay on HCT-15 colon, 66.1 µM; in the assay with HCT-116 colon it was 44.5 µM; in the assay with M14 melanoma, 51.6 µM. In addition, the TGI with NCI-H23 lung was greater than 100 µM; in the assay with HOP-92 NSCLC, greater than 100 µM; in the assay on UACC-62 melanoma, 64.7 µM; in the assay on NCI-H460 lung it was 83 µM; with KM12 colon, 68.8 µM.
`O=C1N2CCN=C2c2ccccc2C1(O)c1ccccc1` (centres undefined): the TGI in the assay with ACHN renal, in the assay with SNB-19 CNS, with RPMI-8226 leukemia, with HCT-15 colon, in the assay on HCT-116 colon and in the assay on M14 melanoma was greater than 100 µM in each case. In addition, the TGI in the assay on NCI-H23 lung, in the assay with HOP-92 NSCLC, in the assay with UACC-62 melanoma, in the assay with NCI-H460 lung and in the assay with KM12 colon was greater than 100 µM throughout.
Regarding `CC(=O)Nc1ccc(S(=O)(=O)/N=c2/sc(S(N)(=O)=O)nn2C)cc1`, the TGI with ACHN renal, in the assay on SNB-19 CNS, in the assay on RPMI-8226 leukemia, in the assay on HCT-15 colon, in the assay on HCT-116 colon and with M14 melanoma was greater than 100 µM throughout. Besides, the TGI in the assay on NCI-H23 lung, with HOP-92 NSCLC, with UACC-62 melanoma, with NCI-H460 lung and with KM12 colon was greater than 100 µM in each case.
Consider `CCOC(=O)n1c2ccccc2c2c(O)c(OC)c3c(c21)C(=O)NC3=O`, for which the concentration for total growth inhibition (TGI) in the assay on ACHN renal is greater than 100 µM; in the assay on SNB-19 CNS, greater than 100 µM; in the assay with RPMI-8226 leukemia, greater than 100 µM; in the assay on HCT-15 colon, greater than 100 µM; with HCT-116 colon, 49 µM; in the assay with M14 melanoma it was greater than 100 µM. Further, the TGI in the assay with NCI-H23 lung, in the assay on HOP-92 NSCLC, with UACC-62 melanoma, with NCI-H460 lung and with KM12 colon was greater than 100 µM each time.
With `CC(C)CC(NC(=O)C(CCC(=O)OCc1ccccc1)NC(=O)OC(C)(C)C)C(=O)NC(COCc1ccccc1)C(=O)NC(Cc1ccccc1)C(=O)O` (centres undefined) (Boc-E(OBn)LS(Bn)F-OH; configuration not given here), the TGI in the assay on ACHN renal, in the assay on SNB-19 CNS, in the assay with RPMI-8226 leukemia, in the assay on HCT-15 colon, in the assay on HCT-116 colon and in the assay with M14 melanoma was greater than 100 µM each time. The TGI in the assay with NCI-H23 lung, in the assay on HOP-92 NSCLC, in the assay with UACC-62 melanoma, with NCI-H460 lung and with KM12 colon was greater than 100 µM each time.
Turning to `COc1cc(C(C)(C)C)c(OC(=O)/C=C/C(=O)O/C=C/[N+](=O)[O-])c(C(C)(C)C)c1`, the TGI is greater than 100 µM in the assay with ACHN renal; greater than 100 µM in the assay with RPMI-8226 leukemia; 48.4 µM with HCT-15 colon; greater than 100 µM in the assay with HCT-116 colon; 65.6 µM with M14 melanoma; 42.6 µM in the assay with NCI-H23 lung. Besides, the TGI in the assay with HOP-92 NSCLC was greater than 100 µM; in the assay on UACC-62 melanoma it was greater than 100 µM; with NCI-H460 lung it was greater than 100 µM; with KM12 colon, 38.5 µM.
`CCCCC(=O)Nc1ccc2cc(C(=O)OC)c(=O)[nH]c2n1`: the TGI with ACHN renal, in the assay on SNB-19 CNS, in the assay on RPMI-8226 leukemia, in the assay on HCT-15 colon, with HCT-116 colon and in the assay with M14 melanoma was greater than 100 µM throughout. In addition, the concentration for total growth inhibition (TGI) in the assay on NCI-H23 lung, in the assay with HOP-92 NSCLC, in the assay on NCI-H460 lung and with KM12 colon was greater than 100 µM each time.
